“Also recorded” adds a separate entry of the source.
Tests used:
[1] = tested on: human aortic smooth muscle cells; experiment: Cytotoxicity on human aortic smooth muscle cells; format: cell-based; conditions: concentrations up to 100 μM
[2] = tested on: chick chorioallantoic membrane (CAM); experiment: Chick chorioallantoic membrane (CAM) assay; format: in vivo; conditions: methylcellulose disc, 100 micromolar SsnB
Description: To investigate the effects of SsnB on in vivo angiogenesis, a chick chorioallantoic membrane (CAM) assay was utilized. Chick embryos were exposed to methylcelluose discs containing vehicle control (DMSO) or 100 micromolar SsnB.
Methylcellulose discs were created with a solution of 0.5% methylcellulose (diluted in sterile deionized water). A methylcellulose solution of 100 micromolar SsnB was made by adding 1.1 microliters of stock SsnB (93 mM) to 1 ml 0.5% methylcellulose. A vehicle control solution was created by adding 1 microliter of dimethyl sulfoxide (DMSO) to 1 ml 0.5% methylcellulose. Discs were created by placing 20 microliter droplets of SsnB or vehicle control solution onto polytetrafluoroethylene tape (to minimize sticking during drying) and allowed to dry under a laminar flow hood.
The fertilized eggs were placed in a humidified egg incubator with forced air circulation at 37° C. The eggs were automatically rotated every three hours. After 4 days of incubation, the eggs were removed and cracked. Chick embryos with intact yolks were placed in 100 mm petri plates. Each petri plate was placed in a weigh boat containing 13 ml Moscona's buffer and covered with cellophane wrap with two holes for air circulation. The plates were placed in a water-jacketed incubator (37 C, 5% CO2) for 2 days. After 2 days of incubation, the methylcellulose discs containing either SsnB or vehicle control were placed on top of the CAM of each embryo in the right upper quadrant in an area near the allantoic vessels. After 2 additional days of incubation, the CAMs were examined and photographed with a dissecting stereomicroscope. Images were taken of areas containing the discs and non-treated regions. Each group contained seven embryos (calculated with PS 3.0.5 software, effect size of 50%, standard deviation of 30%, statistical power of 0.8, and α=0.05). The CAM assay was completed two times.
Images were analyzed with ImagePro Plus software. Blood vessel length and branching number were utilized to measure the effect of SsnB on angiogenesis. The vessel length was measured for areas containing the discs and non-treated regions. Normalized vessel length was calculated by dividing the length values of the treated regions by those of the non-treated regions. The same process was repeated for measuring the branching number.

HCAECs [3] = experiment: Real time RT-PCR gene expression (HCAECs); format: cell-based, human; conditions: 24 h
Description: After a careful analysis of the microarray data, key genes (CDC6, CCNE2, KITLG, ALDH3A1, CCNB1, CDC2, HMMR, DIAPH3, ANLN, and CDKN3) were chosen for quantitative real-time PCR (qRT-PCR) to verify the gene expression results. HCAECs and HUVECs were exposed to SsnB or vehicle control for 24 h (as previously described in the microarray section). For RT-PCR, RNA was isolated from the cells with the RNeasy Mini kit as described previously. After forward and reverse primer kits (Qiagen, Valencia, Calif.) were selected, the RNA was amplified. The one-step RT-PCR reactions were completed on the BioRad iCycler thermal cycler system in the Instrumentation Resource Facility at the USC School of Medicine. The expression levels were normalized, and RNA levels were quantified.
Microarray data analysis, including data normalization (robust multi-array average), identification of differentially expressed genes (comparative analyses with dChip software), and heat map construction, was carried out to determine how SsnB affects gene expression and affected pathways (n=2 for HUVECs and n=3 for HCAECs). After a careful analysis of the microarray data, several key genes were chosen for qRT-PCR to verify the gene expression results. The genes were chosen based on the following criteria: fold change ≧2, p<0.05, unpaired t-test with a false discovery rate approximating 0%, appearing in both data sets (HUVECs and HCAECs), and gene function relating to cell proliferation and/or angiogenesis. For qRT-PCR, the expression levels were normalized to the housekeeping gene GAPDH, and RNA levels were compared between groups with the ΔΔCt method.

HCAECs [4] = experiment: Matrigel tube formation assay (HCAECs); format: cell-based, human; conditions: between 1 and 100 μM, 4 h
Description: To initially determine if SsnB inhibited pro-angiogenic cell functions, a tube formation assay with Matrigel was performed. Growth factor reduced Matrigel (BD Biosciences, Bedford, Mass.) was added to the wells of a 96 well polystyrene culture plate and incubated at 37° C. for 30 minutes. Cells (HUVECs, HCAECs, or HMVECs at passage 2 to 4) were added to each well to reach a final number of 20,000 cells per well. SsnB was added to the wells at a concentration of 1, 10, or 100 μM. Endothelial cell medium with DMSO (0.1%) was used as a vehicle control. Each group contained 4 replicates. The plates were placed in an incubator for 4 h. During the incubation, the endothelial cells formed elongated structures called cords, also known as tubes. After 4 h, neutral buffered formalin was added to fix the cells. Pictures of three non-overlapping fields were taken from each well. The lengths of single cell endothelial cords were measured with Image-Pro Plus (Media Cybernetics, Silver Spring, Md.), and the sum of tube lengths for each well was determined. The average total length and standard deviation for each group were determined, and the appropriate statistical tests (ANOVA and Newman-Keuls) were completed. The tube formation assay was replicated three times for both HUVECs and HCAECs. The assay was also repeated with cardiac HMVECs.

[5] = SsnB vs vehicle control, normalized to GAPDH

O=c1occ2c3c(ccc(O)c13)Oc1ccc(O)cc1-2 [SsnB, Sparstolonin B]
cytotoxic effects [1]: does not exhibit cytotoxic effects
blood vessel diameter and size ([2]; 2 days): decrease
normalized branch number ([2]; 2 days, vs vehicle control): significant decrease; also recorded: significant reduction
normalized blood vessel length (capillary length) ([2]; 2 days, vs vehicle control, p<0.05): significant decrease; also recorded: significant reduction
viability or morphology of the embryos ([2]; relative to vehicle control): no effect
ALDH3A1 expression (qRT-PCR) (HCAECs [3]): 4620 % of controls
CCNE2 gene expression after SsnB exposure (qRT-PCR) (HCAECs [3]): 57 % of controls
CDC6 gene expression after SsnB exposure (qRT-PCR) (HCAECs [3]): 14 % of controls
KITLG expression (qRT-PCR) (HCAECs [3]): 260 % of controls
ALDH3A1 PCR 2^ΔΔCt value (HCAECs [3]; [5]): 46.2
ANLN PCR 2^ΔΔCt value (HCAECs [3]; [5]): 0.13
CCNB1 PCR 2^ΔΔCt value (HCAECs [3]; [5]): 0.13
CCNE2 PCR 2^ΔΔCt value (HCAECs [3]; [5]): 0.57
CDC2 PCR 2^ΔΔCt value (HCAECs [3]; [5]): 0.17
CDC6 PCR 2^ΔΔCt value (HCAECs [3]; [5]): 0.14
CDKN3 PCR 2^ΔΔCt value (HCAECs [3]; [5]): 0.22
DIAPH3 PCR 2^ΔΔCt value (HCAECs [3]; [5]): 0.26
HMMR PCR 2^ΔΔCt value (HCAECs [3]; [5]): 0.062
KITLG PCR 2^ΔΔCt value (HCAECs [3]; [5]): 2.6
HCAEC tube formation on Matrigel (HCAECs [4]): dose-dependent inhibition

Reference: US20140303242A1, “Sparstolonin B Based Pharmaceutical Agent to Treat Pathological Angiogensis” (University of South Carolina, priority 2013, published 2014)
